Test system: depolymerase from phage-infected E. amylovora NCPPB595
Test: Effect of chemical agents on depolymerase activity (galactose release from polysaccharide)
Type: biochemical, phage ERA103 / Erwinia amylovora NCPPB595
Conditions: for Effect of agent on depolymerase activity (in words): Table 2; for Activity % Control: control assay without inhibitors
Procedure: Depolymerase activity was assayed by following the release of galactose from the polysaccharide substrate according to the method of Fairbridge (Fairbridge,R. A., et al. Biochem. J. 49:423-427 (1951)). The reaction mixture consisted of the following: 100 microliters of the appropriate enzyme solution and 100 microliters of polysaccharide (10 mg/ml) suspended in 0.01M citrate buffer, pH 6.0 containing 0.01M 2-mercaptoethanol. One unit of enzyme was defined as the amount of enzyme required to produce 1 micromole of galactose per minute under standard assay conditions.
Substrate Preparation. Polysaccharide was prepared from uninfected cultures of Erwinia amylovora NCPPB595 cultivated on sheets of cellophane overlaying Tryptic Soy agar, as decribed by Liu (Liu, P.V., et al., J. Infect. Dis. 108:218-228 (1961)). The polysaccharide was extracted from the slime layer according to the method of Liu.
The effect of various chemical agents on depolymerase activity can be seen in Table 2.

[1] = agent 10.0 millimoles per liter

Molecule	Effect of agent on depolymerase activity (in words)	Activity % Control (agent 0.1 millimoles per liter) [% Control]	Activity % Control (agent 1.0 millimoles per liter) [% Control]	Activity % Control [1] [% Control]
O=C(O)CI [Iodoacetate]	no efect on enzymatic activity	100	100	100
Oc1cccc2cccnc12 [8-hydroxyquinoline]	insensitive	–	–	–
OC(CS)C(O)CS (centres unmarked) [Dithiothreitol, 1,4 dimercapto-2,3-butanediol]	enhanced depolymerase activity substantially	122	138	258
[N-]=[N+]=[N-] [Sodium azide]	insensitive	100	100	100
ethylene-di-(o-hydroxyphenylacetate)	insensitive	100	100	100
CCN1C(=O)C=CC1=O [N--ethylmaleimide, N-ethylmaleimide]	no efect on enzymatic activity	100	100	100
O=C(O)c1cc[c]([Hg][Cl])cc1 [p-Chloromercuribenzoate]	inhibited the enzyme at all concentrations tested	0	0	0
OCCS [2-Mercaptoethanol]	enhanced depolymerase activity substantially	122	155	168

— US4678750A, “Method and compositions for use in the treatment of fireblight” (Microlife Technics, Inc., priority 1984, dated 1987)
